Data published in patent publication US20140005163A1 (NOVARTIS AG, priority 2010, published 2014).
Values after ≈ are worked out from the molar mass of the structure shown.

Legend:
[1] = molecular target: T1, PI3K alpha (Homo sapiens, UniProt P42336); experiment: PI3K alpha kinase assay (Kinase-Glo luminescence); assay type: biochemical
T1 construct: p85(iSH2) fusion partner (see partner chain) (N); His tag (C); made in house; host or cells: baculovirus; Tn5 (Trichoplusia ni) or TiniPro insect cells
Method in brief: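 Compounds are titrated at 8 concentrations and mixed with PI3Kα protein (EMV B1075, 10 nM) in phosphatidylinositol (10 μg/mL). ATP at 1 μM starts the 60-minute room-temperature reaction, which is stopped with Kinase-Glo before luminescence reading. Four-parameter curve fitting gives IC50.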

[2] = molecular target: T2, PI3K delta (Homo sapiens, UniProt O00329); experiment: PI3K delta kinase assay (Kinase-Glo luminescence); assay type: biochemical
T2 construct: for the full-length p110-d subunit are generated and fused by overlapping PCR; p85(iSH2) fusion partner (see partner chain) (N); His tag (C); made in house; host or cells: baculovirus; Tn5 (Trichoplusia ni) or TiniPro insect cells
Method in brief: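 ATP 1 μM, PI 10 μg/mL, PI3Kδ construct BV1060 10 nM (final); 10 mM Tris pH 7.5, 3 mM MgCl2, 50 mM NaCl, 0.05% CHAPS, 1 mM DTT; 60 min RT; Kinase-Glo stop, luminescence.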

[3] = tested on: S6 Ribosomal Protein phosphorylation Ser235/236 in TSC1 null mouse embryo fibroblast (MEF) cells; experiment: Reverse protein array assay, S6 Ribosomal Protein phosphorylation Ser235/236 in TSC1 null MEF cells; assay type: cell-based; details: 1 h, pS6 ribosomal protein Ser235/236, 60 minutes incubation, read-out: p-S6 IC50
Method in brief: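 TSC1−/− MEFs, seeded and held ≥20 h at 37 °C/5% CO2, were exposed to 8-step serial compound dilutions (0.02% DMSO final; DMSO vehicle control) for 60 min at 37 °C. Cells were then lysed on ice for 10 min and lysates spotted onto reverse protein array chips.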

[4] = Solubility at pH 6.8; assay type: physicochemical; details: pH 6.8, aqueous buffer, thermodynamic from solid; read-out: solubility
Method in brief: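 Following the procedure of Zhou et al. (2007), compound solubility was determined at pH 6.8.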

[5] = molecular target: T3, PI3K beta (Homo sapiens, UniProt P42338); experiment: PI3K beta kinase assay (Kinase-Glo luminescence); assay type: biochemical
T3 construct: for the full-length p110-b subunit are generated and fused by overlapping PCR; p85(iSH2) fusion partner (see partner chain) (N); His tag (C); made in house; host or cells: baculovirus; Tn5 (Trichoplusia ni) or TiniPro insect cells
Method in brief: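 Kinase-Glo luminescence after a 60 min room-temperature reaction gives remaining ATP. The reaction holds 25 nM p85(iSH2)-p110β full-length His-tagged construct, 1 μM ATP, 10 μg/mL PI, and eight compound concentrations at 0.45% DMSO final. IC50 values come from a four-parameter logistic fit.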

T2 sequence (O00329 with tags, fused parts or gaps limits assumed): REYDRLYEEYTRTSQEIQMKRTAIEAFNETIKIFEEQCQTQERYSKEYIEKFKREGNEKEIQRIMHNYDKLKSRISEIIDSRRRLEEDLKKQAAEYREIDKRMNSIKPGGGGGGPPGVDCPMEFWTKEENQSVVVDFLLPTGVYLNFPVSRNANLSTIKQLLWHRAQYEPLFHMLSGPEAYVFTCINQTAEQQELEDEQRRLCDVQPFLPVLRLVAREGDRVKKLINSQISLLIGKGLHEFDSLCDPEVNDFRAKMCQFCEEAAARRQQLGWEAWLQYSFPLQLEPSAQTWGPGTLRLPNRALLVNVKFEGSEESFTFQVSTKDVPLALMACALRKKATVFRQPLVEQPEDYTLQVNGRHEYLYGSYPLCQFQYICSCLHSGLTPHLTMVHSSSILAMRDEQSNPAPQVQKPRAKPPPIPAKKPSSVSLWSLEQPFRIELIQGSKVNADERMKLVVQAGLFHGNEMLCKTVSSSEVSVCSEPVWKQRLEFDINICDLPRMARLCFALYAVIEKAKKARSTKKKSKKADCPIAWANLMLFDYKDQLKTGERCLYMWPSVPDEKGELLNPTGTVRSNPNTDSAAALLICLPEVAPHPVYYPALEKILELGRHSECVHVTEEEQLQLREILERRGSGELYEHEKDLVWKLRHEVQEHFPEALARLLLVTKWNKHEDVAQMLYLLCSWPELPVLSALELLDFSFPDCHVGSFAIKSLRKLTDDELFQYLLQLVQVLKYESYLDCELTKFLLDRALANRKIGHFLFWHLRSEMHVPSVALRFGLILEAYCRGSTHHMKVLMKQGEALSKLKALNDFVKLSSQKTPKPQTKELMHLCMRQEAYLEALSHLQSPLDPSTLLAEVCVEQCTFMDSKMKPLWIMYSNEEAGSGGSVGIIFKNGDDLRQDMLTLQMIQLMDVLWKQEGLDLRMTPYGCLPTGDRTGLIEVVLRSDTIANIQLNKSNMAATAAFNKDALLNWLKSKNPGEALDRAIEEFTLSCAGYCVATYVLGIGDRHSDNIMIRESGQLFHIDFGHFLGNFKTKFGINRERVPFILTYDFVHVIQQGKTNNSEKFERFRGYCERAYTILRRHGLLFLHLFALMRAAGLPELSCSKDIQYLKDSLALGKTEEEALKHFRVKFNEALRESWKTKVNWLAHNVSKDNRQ
T1 sequence (P42336 with tags, fused parts or gaps limits assumed): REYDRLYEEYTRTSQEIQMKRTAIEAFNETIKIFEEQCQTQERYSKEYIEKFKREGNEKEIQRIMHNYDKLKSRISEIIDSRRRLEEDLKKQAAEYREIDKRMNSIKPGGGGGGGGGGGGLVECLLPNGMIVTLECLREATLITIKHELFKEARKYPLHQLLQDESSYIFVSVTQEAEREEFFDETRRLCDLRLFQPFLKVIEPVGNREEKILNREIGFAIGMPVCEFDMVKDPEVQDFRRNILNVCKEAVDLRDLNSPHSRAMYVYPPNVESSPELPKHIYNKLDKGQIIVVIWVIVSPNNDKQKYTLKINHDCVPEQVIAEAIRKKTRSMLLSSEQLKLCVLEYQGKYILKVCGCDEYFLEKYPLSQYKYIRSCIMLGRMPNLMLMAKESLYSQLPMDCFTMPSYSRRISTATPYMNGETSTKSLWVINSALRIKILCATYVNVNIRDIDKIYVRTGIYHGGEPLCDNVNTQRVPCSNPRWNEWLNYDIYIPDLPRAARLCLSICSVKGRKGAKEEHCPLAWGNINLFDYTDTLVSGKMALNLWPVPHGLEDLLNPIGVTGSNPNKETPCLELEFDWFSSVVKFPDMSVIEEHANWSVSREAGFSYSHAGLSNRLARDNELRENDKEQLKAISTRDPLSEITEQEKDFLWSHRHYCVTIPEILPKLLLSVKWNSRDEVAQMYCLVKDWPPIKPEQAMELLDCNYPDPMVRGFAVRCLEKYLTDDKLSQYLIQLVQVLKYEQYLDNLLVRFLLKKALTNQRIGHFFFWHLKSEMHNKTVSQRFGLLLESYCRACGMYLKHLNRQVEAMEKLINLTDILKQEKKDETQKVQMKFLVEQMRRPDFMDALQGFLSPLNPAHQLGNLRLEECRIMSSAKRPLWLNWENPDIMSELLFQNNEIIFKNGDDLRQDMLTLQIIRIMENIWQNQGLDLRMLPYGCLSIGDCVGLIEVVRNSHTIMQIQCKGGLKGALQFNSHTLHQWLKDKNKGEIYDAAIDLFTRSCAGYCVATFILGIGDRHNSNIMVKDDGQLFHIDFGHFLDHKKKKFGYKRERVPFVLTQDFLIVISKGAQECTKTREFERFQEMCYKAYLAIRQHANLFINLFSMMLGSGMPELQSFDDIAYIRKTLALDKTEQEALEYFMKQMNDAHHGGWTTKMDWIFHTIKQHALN
T3 sequence (P42338 with tags, fused parts or gaps limits assumed): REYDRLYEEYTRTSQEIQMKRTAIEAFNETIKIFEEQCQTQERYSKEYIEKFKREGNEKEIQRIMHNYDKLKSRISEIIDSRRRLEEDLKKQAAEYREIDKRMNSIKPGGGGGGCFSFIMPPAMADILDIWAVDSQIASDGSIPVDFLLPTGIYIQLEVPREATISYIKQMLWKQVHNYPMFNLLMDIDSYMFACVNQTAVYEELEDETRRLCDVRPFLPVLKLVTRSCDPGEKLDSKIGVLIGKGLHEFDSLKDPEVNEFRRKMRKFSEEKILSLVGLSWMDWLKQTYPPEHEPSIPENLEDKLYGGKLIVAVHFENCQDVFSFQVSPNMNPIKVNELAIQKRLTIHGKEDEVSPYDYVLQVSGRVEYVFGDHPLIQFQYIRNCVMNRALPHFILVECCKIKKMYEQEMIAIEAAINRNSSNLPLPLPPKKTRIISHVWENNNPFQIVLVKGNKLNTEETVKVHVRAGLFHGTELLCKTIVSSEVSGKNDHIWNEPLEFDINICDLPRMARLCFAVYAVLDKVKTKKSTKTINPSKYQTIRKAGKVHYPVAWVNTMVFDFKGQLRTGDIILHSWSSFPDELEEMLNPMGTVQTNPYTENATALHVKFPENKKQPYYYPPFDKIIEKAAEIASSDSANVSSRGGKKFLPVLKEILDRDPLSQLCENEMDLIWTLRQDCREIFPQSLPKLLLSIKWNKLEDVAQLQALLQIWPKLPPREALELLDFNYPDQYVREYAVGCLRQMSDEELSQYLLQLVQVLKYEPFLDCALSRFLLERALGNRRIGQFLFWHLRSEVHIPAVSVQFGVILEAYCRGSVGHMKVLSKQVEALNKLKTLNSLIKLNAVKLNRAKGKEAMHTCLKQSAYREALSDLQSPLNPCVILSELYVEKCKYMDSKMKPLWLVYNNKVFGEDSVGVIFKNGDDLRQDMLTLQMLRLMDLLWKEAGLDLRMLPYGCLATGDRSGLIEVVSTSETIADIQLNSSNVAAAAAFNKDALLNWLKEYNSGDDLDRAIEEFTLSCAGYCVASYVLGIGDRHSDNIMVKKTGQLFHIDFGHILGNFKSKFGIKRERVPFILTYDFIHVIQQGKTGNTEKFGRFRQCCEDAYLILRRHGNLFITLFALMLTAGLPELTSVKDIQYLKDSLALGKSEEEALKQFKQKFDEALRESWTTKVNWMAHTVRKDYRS

| Structure (SMILES) | IC50 [1] | IC50 [2] | IC50 [3] | solubility [4] | IC50 [5] |
| --- | --- | --- | --- | --- | --- |
| COCCOc1cc(-c2ccc3ncc4c(c3c2)n(-c2cn(C)nc2C)c(=O)n4C)cnc1CO [Example 244, 1-(1,3-Dimethyl-1H-pyrazol-4-yl)-8-[6-hydroxymethyl-5-(2-methoxy-ethoxy)-pyridin-3-yl]-3-methyl-1,3-dihydro-imidazo[4,5-c]quinolin-2-one] | 30 nM | 17 nM | 25 nM | 92 µg/mL (≈ 194 µM) | 188 nM |
| CCn1c(=O)n(-c2cn(C)nc2C)c2c3nc(-c4ccc(OC)c(OC)c4)ccc3ncc21 [Example 251, 8-(3,4-Dimethoxy-phenyl)-1-(1,3-dimethyl-1H-pyrazol-4-yl)-3-ethyl-1,3-dihydro-1,3,5,9-tetraaza-cyclopenta[a]naphthalen-2-one] | 28 nM | 170 nM | 33 nM | 12 µg/mL (≈ 27 µM) | 504 nM |
| COc1ccc(-c2ccc3ncc4[nH]c(=O)n(-c5cc(C)nn5C)c4c3n2)cc1OC [Example 252, 8-(3,4-Dimethoxy-phenyl)-1-(2,5-dimethyl-2H-pyrazol-3-yl)-1,3-dihydro-1,3,5,9-tetraaza-cyclopenta[a]naphthalen-2-one] | 3 nM | 7 nM | 5 nM | 5 µg/mL (≈ 12 µM) | 24 nM |
| COc1ccc(-c2ccc3ncc4c(c3n2)n(-c2cc(C)nn2C)c(=O)n4C)cc1OC [Example 253, 8-(3,4-Dimethoxy-phenyl)-1-(2,5-dimethyl-2H-pyrazol-3-yl)-3-methyl-1,3-dihydro-1,3,5,9-tetraaza-cyclopenta[a]naphthalen-2-one] | 4 nM | 5 nM | < 5 nM | 7 µg/mL (≈ 16.3 µM) | 8 nM |
